From ChEMBL document CHEMBL1201862, “PubChem BioAssay data set” (2004) come the findings set out here.

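Five concentrations, 48 hours, 96-well plates. GI50 = concentration required for 50% inhibition of growth.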 Active and inactive are the calls of the source. Cut-off read from the data, not from the text of the source: active = GI50 up to about 1.1 µM and inactive = higher. Some results are limits rather than exact numbers.

Some test systems named below: IGROV-1; SW-620; NCI-H226; MDA-MB-231; TK-10; HT-29; RPMI-8226; OVCAR-3; KM12; OVCAR-8; HL-60; EKVX; COLO 205; OVCAR-4; MCF7; U-251; SF-539; SNB-75; MOLT-4; Malme-3M.
What all share (assay): NCI anticancer screen, dose series, 48 h

With `C[Si](C)(C)OC1(C#N)c2ccccc2CCCC12CCCC2` (stereo not given), the GI50 in the assay with IGROV-1 is 43.3 µM (inactive); with SW-620, 44.9 µM (inactive); in the assay with NCI-H226, > 100 µM (inactive); with MDA-MB-231, 50.9 µM (inactive); in the assay on TK-10 it was > 100 µM (inactive); in the assay with HT-29, 27.8 µM (inactive). The GI50 in the assay on RPMI-8226 is 21.6 µM (inactive); with OVCAR-3, 46 µM (inactive); with KM12, 42.8 µM (inactive); with OVCAR-8, 50.9 µM (inactive); with HL-60 it was 17.8 µM (inactive); in the assay with EKVX it was 31.3 µM (inactive). For the same compound, the GI50 was 37.1 µM (inactive) in the assay on COLO 205; 80 µM (inactive) with OVCAR-4; 30.1 µM (inactive) in the assay with MCF7; 29.4 µM (inactive) in the assay on U-251; 53.5 µM (inactive) in the assay with SF-539; 49.8 µM (inactive) in the assay on SNB-75. Also, the values for the GI50 in the assay on MOLT-4 and in the assay with Malme-3M were 23.1 µM (inactive) and 39.4 µM (inactive), respectively.

Take `COC(=O)C1(Cc2ccccc2)Cc2cc3c(cc2C1)CCC3`: the GI50 with IGROV-1 is 24.5 µM (inactive); in the assay with SW-620, 36.1 µM (inactive); with NCI-H226, 22 µM (inactive); in the assay on MDA-MB-231, 45.3 µM (inactive); in the assay with TK-10, 68.7 µM (inactive); in the assay with HT-29, 10.5 µM (inactive). The GI50 is 15.4 µM (inactive) in the assay on RPMI-8226; 33.7 µM (inactive) in the assay on OVCAR-3; 22.3 µM (inactive) with KM12; 25.3 µM (inactive) in the assay with OVCAR-8; 14.1 µM (inactive) with HL-60; 21.5 µM (inactive) in the assay with EKVX. Further, the GI50 with COLO 205 was 16.7 µM (inactive); in the assay on OVCAR-4, 30.7 µM (inactive); in the assay with MCF7, 15.5 µM (inactive); in the assay with U-251, 22.4 µM (inactive); with SF-539 it was 41.3 µM (inactive); in the assay with SNB-75 it was 20.3 µM (inactive). In addition, the GI50 with MOLT-4 was 15.5 µM (inactive); with Malme-3M, 22.3 µM (inactive).

Consider `COc1cccc(NC(=O)CC(=O)n2nc(-c3ccccc3)c(/N=N/c3ccc(Cl)cc3)c2-c2ccccc2)c1`, for which the GI50 is 7.55 µM (inactive) in the assay on IGROV-1; 36.1 µM (inactive) with SW-620; 20.3 µM (inactive) in the assay with NCI-H226; 21.3 µM (inactive) in the assay on MDA-MB-231; 64.1 µM (inactive) with TK-10; 19.6 µM (inactive) in the assay with HT-29. The GI50 in the assay on RPMI-8226 is 12 µM (inactive); in the assay on OVCAR-3, 22.1 µM (inactive); in the assay on KM12, 31.7 µM (inactive); in the assay on OVCAR-8, 15.8 µM (inactive); with HL-60, 6.43 µM (inactive); with EKVX it was 24 µM (inactive). Further, the GI50 is 23 µM (inactive) with COLO 205; 36.4 µM (inactive) in the assay with OVCAR-4; 7.57 µM (inactive) in the assay with MCF7; 7.87 µM (inactive) in the assay with U-251; 26.6 µM (inactive) in the assay with SF-539; 42.8 µM (inactive) in the assay on SNB-75. For the same compound, the GI50 in the assay with MOLT-4 is 9.84 µM (inactive); in the assay with Malme-3M it was 13.7 µM (inactive).

On to `COC(=O)[C@@H](NC(=O)[C@H](N)Cc1ccc(N(CCCl)CCCl)cc1)C(C)C`, for which the GI50 with IGROV-1 was 15.9 µM (inactive); in the assay with SW-620, 11 µM (inactive); with NCI-H226 it was 18.7 µM (inactive); in the assay with MDA-MB-231 it was 26.1 µM (inactive); with TK-10 it was 22.4 µM (inactive); with HT-29 it was 24.6 µM (inactive). For the same compound, the GI50 in the assay with RPMI-8226 was 5.3 µM (inactive); in the assay with OVCAR-3 it was 6.38 µM (inactive); in the assay with KM12, 25.1 µM (inactive); in the assay on OVCAR-8, 7.06 µM (inactive); in the assay on HL-60, 1.32 µM (inactive); in the assay with EKVX, 34 µM (inactive). Further, the GI50 in the assay on COLO 205 is 16.9 µM (inactive); in the assay with OVCAR-4 it was 13.1 µM (inactive); in the assay with MCF7, 12.5 µM (inactive); in the assay with U-251, 19.4 µM (inactive); in the assay on SF-539, 7.91 µM (inactive); in the assay with SNB-75, 11.1 µM (inactive). Moreover, the GI50 in the assay with MOLT-4 was 0.0204 µM (active); with Malme-3M, 1.92 µM (inactive).

For the compound `COc1ccc(/C=C2\CC3C4CC=C5C[C@@H](O)CC[C@]5(C)C4CC[C@]3(C)\C2=N\O)cc1OC` (stereo not given in full), the GI50 with IGROV-1 is 38.8 µM (inactive); with SW-620 it was 43.4 µM (inactive); in the assay on NCI-H226, 7.28 µM (inactive); in the assay on MDA-MB-231, 16.2 µM (inactive); in the assay on TK-10, 5.09 µM (inactive); in the assay with HT-29 it was 9.02 µM (inactive). For the same compound, the GI50 in the assay with RPMI-8226 was 7.24 µM (inactive); in the assay with OVCAR-3, 2.69 µM (inactive); in the assay with KM12 it was 7.5 µM (inactive); in the assay on OVCAR-8, 8.97 µM (inactive); in the assay with HL-60 it was 11.2 µM (inactive); in the assay with EKVX, 6 µM (inactive). Besides, the GI50 in the assay on COLO 205 was 5.13 µM (inactive); with OVCAR-4, 5.02 µM (inactive); in the assay on MCF7 it was 4.24 µM (inactive); with U-251, 9.2 µM (inactive); in the assay with SF-539, 7.26 µM (inactive); in the assay on SNB-75, 2.33 µM (inactive). Also, the GI50 in the assay with MOLT-4 was 5.37 µM (inactive); in the assay on Malme-3M, 33.3 µM (inactive).

Take `O=C(c1ccco1)C1CC(c2c(O)ccc3ccccc23)=NN1` (stereo not given): the GI50 in the assay with IGROV-1 is 13.3 µM (inactive); in the assay with SW-620, 11.8 µM (inactive); in the assay with NCI-H226, 15.2 µM (inactive); in the assay with MDA-MB-231, 13.2 µM (inactive); in the assay with TK-10, 14.3 µM (inactive); in the assay with HT-29, 11.8 µM (inactive). For the same compound, the GI50 was 13.6 µM (inactive) in the assay on RPMI-8226; 12.2 µM (inactive) in the assay with OVCAR-3; 11.4 µM (inactive) with KM12; 18.3 µM (inactive) in the assay on OVCAR-8; 13.5 µM (inactive) with HL-60; 13.2 µM (inactive) with EKVX. In addition, the GI50 was 6.37 µM (inactive) in the assay with COLO 205; 25.4 µM (inactive) in the assay with OVCAR-4; 3.15 µM (inactive) in the assay on MCF7; 14.7 µM (inactive) with U-251; 13.1 µM (inactive) in the assay on SF-539; 11.8 µM (inactive) in the assay with SNB-75. Also, the GI50 in the assay with MOLT-4 was 12.1 µM (inactive); in the assay with Malme-3M it was 16 µM (inactive).
